This is an account of results in patent publication US20080131920A1, “Ion flux in biological processes, and methods related thereto” (priority 2005, published 2008).

Structures are written as SMILES. “And” between values parts separate entries of the source, which are not always exact repeats. Equal entries are not always repeated.

The subject of one series is axons of the tail. Nature of the series: Axonal patterning in regenerating tails (acetylated α-tubulin immunohistochemistry). The arrangement: species or system Xenopus laevis. To be noted: in vivo. The source says: Finally, to characterize downstream morphogenetic consequences of V-ATPase abrogation, we traced axonal paths during regeneration using immunohistochemistry with an acetylated α-tubulin antibody. In normally regenerating tails, axons appear increased in number (relative to the uncut portion of tail) and they extend into the bud in bundles parallel to the main anterior-posterior axis of the tail (FIG. 14H; green arrows indicate normal axon patterning, while black arrows indicate abnormal axon number and/or location). […] Moreover, in normal refractory tails, there is no apparent increase in the number of axons, and those that are present terminate well anterior of the tail tip (FIG. 14K). […]
Axon and muscle marker detection was performed using fluorescent secondary antibodies. […] Fluorescence images were collected on a Leica TCS SPZ confocal imaging system; λex=543. […] Background autofluorescence was removed by segmentation of the original fluorescence images. The brightest pixels could readily be selected such that the selection best represented the pattern of axons. […]

For a further series, the system named is KCNK1. Nature of the series: KCNK1 expression in the regeneration bud. The arrangement: species or system Xenopus laevis. The note with it: in vivo. An excerpt: We then sought to functionally link V-ATPase activity to gene expression in the regeneration bud. Existing markers include Notch pathway genes^2. […] Because of this, and because the V-ATPase is expressed so soon following amputation, we utilized an earlier marker that is normally expressed by 12 hpa: the K^+ channel KCNK1 (FIG. 14E,E′). In larvae in which V-ATPase activity was abrogated by concanamycin or a function-blocking anti-V-ATPase antibody, KCNK1 expression was absent (N=13, FIG. 14F,F′-G,G′). Thus, V-ATPase is upstream of some gene expression in the regeneration bud, including other ion transporters also specifically expressed during early stages of regeneration.
Larvae were fixed in MEMFA (Sive et al., 2000) and dehydrated in methanol. In situ hybridization was carried out according to standard protocols (Harland, 1991, Xenopus laevis: Practical uses in cell and molecular biology 36: 685-695). The ion transporter constructs used to generate probes for in situ hybridization (ISH) experiments were: Kcnk1 (TWIK-1, BC042262, Open Biosystems), V-ATPase 16 kDa subunit (BE025959, RZPD). Plasmids were used to generate anti-sense riboprobes by in vitro transcription. […] Expression indicated represents consistent consensus patterns obtained from analysis of at least 15 larvae in all experiments. […]

The next series relates to XNr-1. Nature of the series: Left-sided XNr-1 expression by whole mount in situ hybridization. To be noted: in vivo. The arrangement: species or system Xenopus laevis. How it is done:
As outlined above, effects on asymmetry were initially evaluated by inspection of embryo morphology. […] Embryos were treated with the H^+-V-ATPase inhibitory compound concanamycin.
Whole mount in situ hybridization (WISH) on Xenopus was performed according to standard methods. DNA used to transcribe in situ hybridization probes were XNr-1 (Lohr et al., 1998, Developmental Genetics 23: 194-202; Lowe et al., 1996, Nature 381: 158-161); cShh (Levin et al., 1995, Cell 82: 803-814); cNodal (Levin et al., 1995, Cell 82: 803-814).

Series [1] relates to Xenopus tail regeneration.
For another series, the system named is H3P-positive cells. Nature of the series: H3P-positive proliferating cell quantification in amputated larvae. The note with it: for Average count of H3P-positive cells / Individual counts of H3P-positive cells: medial (flank) region. In kind it is in vivo, Xenopus laevis. The source says:
To gain insight into the cellular mechanisms by which the V-ATPase participates in regeneration, we characterized the pattern of proliferating cells during regeneration, using an antibody to the phosphorylated Histone 3B—a standard marker of cells in the G2/M transition of the cell cycle, useful for identifying mitotic cells in regenerating systems including Xenopus (Saka and Smith, 2001, Dev Biol 229: 307-18; Sanchez Alvarado, 2003, Current Opinion in Genetics & Development 13: 438-444). At 24 hpa, this subset of proliferating cells is homogenously distributed throughout the growing tail (FIG. 14A). […]. […].
H3P staining marks cells in the G2/M transition of the cell cycle, and is commonly used for identifying mitotic cells in regenerating systems including Xenopus (Saka and Smith, 2001, Dev Biol 229: 307-18; Sanchez Alvarado, 2003, Current Opinion in Genetics & Development 13: 438-444). Fixed specimens at the stages indicated were processed for H3P staining as above using an alkaline-phosphatase secondary. Bleaching of the natural pigments in samples allowed easy counting of H3P-positive cells. The close-up panel to the left illustrates the distinction between purple alkaline-phosphatase signal (H3P-positive nuclei) and brown melanocytes. […] Between 4 and 6 samples were counted for each stage and each condition. Similar numbers were obtained in immunohistochemistry performed on sections as in wholemounts and in fluorescent detection (i.e., reagent penetration and chromogenic staining are not confounding factors in H3P-positive cell detection). […]

Another series has as its system primitive streak cells. Nature of the series: Cellular pH imaging of early chick blastoderm with SNARF-1-AM. In kind it is in vivo.

As for `C/C=C/[C@H]1O[C@@](O)([C@@H](C)[C@H](O)[C@H](C)[C@H]2OC(=O)/C(OC)=C/C(C)=C/[C@@H](C)[C@@H](O)[C@@H](CC)[C@@H](O)[C@H](C)C/C(C)=C/C=C/[C@@H]2OC)C[C@@H](O)[C@@H]1C` [concanamycin], the “axon patterning in V-ATPase-inhibited tails” value in the series on axons of the tail is on record as “axon patterning is abnormal”. Also, the “KCNK1 expression in the regeneration bud” value in the series on KCNK1 was “absent”. For the same compound, the “left-sided gene expression of XNr-1” value with XNr-1 is listed as “perturbed the normally left-sided gene expression”. In addition, the general toxicity result in series [1] (150 nM) is given as “absence of general toxicity”. In addition, the “effect on tail regeneration” value in series [1] (150 nM, larvae amputated at stage 41) is recorded as “strong inhibition of regeneration”. The “effect on rate or extent of tail regeneration” value in series [1] (compound in medium beginning immediately after tail amputation (stage 40-41)) was “absence of regeneration”. Moreover, in series [1] (tail regeneration in the compound versus control), the “Regeneration Index Treated/Control” value came out at 23%. Besides, the “Regeneration Index Treated” value in series [1] (tail regeneration in the compound, RI computed for each dish of embryos) came out at 49. The “Average count of H3P-positive cells” value with H3P-positive cells (24 hpa) turned out to be 51; in the series with H3P-positive cells (48 hpa), 49. Further, the “Individual counts of H3P-positive cells” value in the series with H3P-positive cells (24 hpa) is 79 and 26 and 45 and 53; with H3P-positive cells (48 hpa), 39 and 58 and 51 and 46. Further, the “reduction in the number of proliferating cells” value in the series with H3P-positive cells (by 24 hpa, general (flank)) was 3 fold. Moreover, in the series with H3P-positive cells (in vivo), the “change in number of proliferating cells in the mid-flank between 24 and 48 hpa” value is on record as “does not change significantly”. In addition, the “pH of cells in the primitive streak” value in the series with primitive streak cells is “lowered the pH”.
